Reference: BindingDB's records for doi:10.1111/cbdd.12161 (Dalian University of Technology, 2013)

Molecular target: T1, Induced myeloid leukemia cell differentiation protein Mcl-1 [172-327] (Homo sapiens, UniProt Q07820)
T1 construct: 172-327
Assay: ITC experiments
Details: pH 8; 25 °C
Procedure: ITC experiments were carried out using iTC200 (Microcal LLC, Northampton, MA, USA) with each of the compounds 1-6 and Mcl-1 protein. The heat of reaction was obtained by making 16 injections (2.4 µL each) of the ligand (final concentration in the syringe of 200 µM in 50 mM Tris, 150 mM NaCl, and 5% DMSO, pH 8.0) into the reaction cell that contained Mcl-1 in the same buffer (final protein concentration of 20 µM). The experiments were done at 25°C and at a stirring speed of 500 rpm. For the control experiment, the sample cell was filled with the assay buffer and the compound solution was added, respectively.

T1 sequence (Q07820 172-327): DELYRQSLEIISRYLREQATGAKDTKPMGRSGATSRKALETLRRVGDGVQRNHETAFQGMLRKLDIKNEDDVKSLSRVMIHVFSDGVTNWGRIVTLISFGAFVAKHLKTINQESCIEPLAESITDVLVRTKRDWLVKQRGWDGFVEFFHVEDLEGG

Structure (SMILES) | Kd [nM]
O=C1c2ccc(Br)cc2C(=O)c2cc(O)c(O)cc21 | 1840
O=C1c2ccccc2C(=O)c2cc(O)c(O)cc21 | 1850

Next, values leading:

Kd [nM] | Structure (SMILES)
950 | Cc1ccc(Sc2ccc3c(c2)C(=O)c2cc(O)c(O)cc2C3=O)cc1
1470 | O=C1c2ccc(Sc3ccccc3)cc2C(=O)c2cc(O)c(O)cc21
238 | CC(C)c1ccc(Sc2ccc3c(c2)C(=O)c2cc(O)c(O)cc2C3=O)cc1
